According to PubChem BioAssay (NCI):
Where “and” joins values, the source holds several entries; their conditions need not be identical. Equal entries are not always repeated.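 Exposure lasted 48 hours, with cells grown in 96-well plates and compounds tested at five concentrations. Abbreviation: GI50, concentration required for 50% inhibition of growth. At the TGI there is no net growth.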

Assays:
Test in all cases: DTP human tumour cell line panel, 48 h
[1] = system: RXF 393 renal
[2] = system: CCRF-CEM leukemia
[3] = system: NCI-H226 lung
[4] = system: U251 CNS
[5] = system: MALME-3M melanoma
[6] = system: OVCAR-5 ovarian
[7] = system: A549 NSCLC
[8] = system: OVCAR-4 ovarian
[9] = system: NCI-H23 lung
[10] = system: OVCAR-8 ovarian

Row | Compound | GI50 [1] | TGI [1] | GI50 [2] | TGI [2] | GI50 [3] | TGI [3] | GI50 [4] | TGI [4] | GI50 [5] | TGI [5] | GI50 [6] | TGI [6] | GI50 [7] | TGI [7] | GI50 [8] | TGI [8] | GI50 [9] | TGI [9] | GI50 [10] | TGI [10]
1 | CC[C@@H](C)/C=C(C)/C=C/C(=O)c1c(O)c(-c2ccc(OC(=O)[C@@]34CC[C@@](C)(C(=O)O3)C4(C)C)cc2)cn(O)c1=O | 1.81 µM | > 50 µM | 1.12 µM | > 50 µM | 1.39 µM | > 50 µM | 1.64 µM | > 50 µM | 1.5 µM | > 50 µM | 2.79 µM | > 50 µM | 4.27 µM | > 50 µM | 1.23 µM | > 50 µM | 2.41 µM | > 50 µM | 1.76 µM | > 50 µM
2 | O=C(Nc1nc(-c2ccc(Cl)cc2)cs1)c1cc(O)c(O)c(O)c1 | 166 µM | 923 µM | 79 µM | 760 µM | 663 µM | 2570 µM | 156 µM | 1200 µM | 266 µM | 2980 µM | 915 µM | > 5000 µM | 276 µM | > 5000 µM | 142 µM | 2490 µM | 292 µM | 3030 µM | 150 µM | > 5000 µM
3 | COC(=O)C1C(C(=O)O)C2(c3ccccc3)C(=O)C1(c1ccccc1)C(c1ccccc1)=C2c1ccccc1 (stereo not drawn) | 16.8 µM | 36.3 µM | 11.7 µM | 33.6 µM | 24.8 µM | 66 µM | 24.2 µM | > 100 µM | 26.8 µM | 59.3 µM | 19.3 µM | 35.3 µM | 19.8 µM | 39.1 µM | 15.3 µM | 48.3 µM | 16.5 µM | 31.5 µM | 18.8 µM | 35.9 µM
4 | CCc1nc(C)cn1C(=O)OCc1nc2nc(Cl)nc(N3CCOCC3)c2[nH]1 | 0.658 µM | 2.01 µM | 0.302 µM | 1.19 µM | 1.84 µM | 4.11 µM | 1.63 µM | 3.42 µM | 1.56 µM | 2.95 µM | 1.44 µM | 2.99 µM | 1.83 µM | 4.36 µM | 1.49 µM | 2.93 µM | 1.55 µM | 3.35 µM | 1.47 µM | 3.61 µM
5 | Cn1ncc(C#N)c1-c1ccc2c(c1)CN([C@H](CN)Cc1cccc(F)c1)C2=O | 0.172 µM | 2.43 µM | 0.932 µM | > 100 µM | 13.6 µM | 65.3 µM | 0.693 µM | > 86.4 µM | 1.33 µM | 11.3 µM | 18.6 µM | > 100 µM | 5.34 µM | > 100 µM | 23.1 µM | > 100 µM | 20 µM | > 100 µM | 47.7 µM | > 100 µM
6 | C=CCn1c2ccccc2c2c3c(c4c5ccccc5n(CC=C)c4c21)C(=O)N(O)C3=O | 3.94 µM | 19.6 µM | 0.971 µM | 7.1 µM | 6.36 µM | 42.2 µM | 2.79 µM | 11.4 µM | 6.91 µM | 26.7 µM | 5.29 µM | 29.6 µM | 4.47 µM | 55.4 µM | 5.38 µM | 44.8 µM | 3.03 µM | 22.2 µM | 4.41 µM | 28.3 µM
7 | C=C1C(=O)O[C@H](c2ccoc2)C[C@@H]1[C@@]1(C)CCCC2(C)C(=O)OCC21 (stereo partly drawn) | – | > 100 µM | – | > 100 µM | – | > 100 µM | – | > 100 µM | – | > 100 µM | – | > 100 µM | – | > 100 µM | – | > 100 µM | – | > 100 µM | – | > 100 µM
8 | COc1ccc2c(c1)C(=Nc1ccc(F)c(Cl)c1)c1c-2c(Nc2ccc(F)c(Cl)c2)nc2ccccc12 | 0.579 µM | 37.1 µM | 0.804 µM | 3.99 µM | 39 µM | > 77.6 µM | 18.8 µM | 43.8 µM | > 100 µM | > 100 µM | > 76.6 µM | > 100 µM | > 74 µM | > 100 µM | 24.8 µM | > 75.7 µM | 19.9 µM | 58 µM | 22.6 µM | > 58.5 µM
9 | Cc1ccc(/C=N/NC(=O)c2ccccc2Oc2ccccc2)o1 | 35.6 µM | > 100 µM | 30.9 µM | > 100 µM | 39.1 µM | > 100 µM | 52.2 µM | > 100 µM | 36.8 µM | > 100 µM | > 93 µM | > 100 µM | 43.5 µM | > 100 µM | 24.6 µM | > 100 µM | 39.2 µM | > 100 µM | 39 µM | > 100 µM
10 | O=c1nc2sc3ccccc3c(=O)n2[nH]1 | – | > 100 µM | – | > 100 µM | – | > 100 µM | – | > 100 µM | – | > 100 µM | – | > 100 µM | – | > 100 µM | – | > 100 µM | – | > 100 µM | – | > 100 µM
11 | Nc1[nH]nc2nc(-c3cc(Cl)ccc3Cl)cc(-c3ccc(F)cc3)c12 | 18.3 µM | 42.3 µM | 0.813 µM | 11.3 µM | 22.6 µM | 60.6 µM | 21.6 µM | 44.8 µM | 27.2 µM | 59.3 µM | 24.3 µM | 59.8 µM | 22.9 µM | 87.3 µM | 39.2 µM | > 100 µM | 28.8 µM | 72.1 µM | 14.3 µM | 59.5 µM
12 | C=C1C(=O)O[C@H]2[C@H]1CC/C(COC(=O)c1cccnc1N)=C\CC[C@@]1(C)O[C@@H]21 | 1.53 µM | 3.78 µM | 0.345 µM | 2.47 µM | 10.1 µM | 24.4 µM | 3.77 µM | 14.5 µM | 1.91 µM | 6.65 µM | 6.95 µM | 21.7 µM | 3.77 µM | 16.5 µM | 2.08 µM | 19.4 µM | 5.56 µM | 24.5 µM | 4.2 µM | 16.3 µM
13 | N#C/C(=C\c1c(O)cc(O)cc1O)C(N)=O | – | > 100 µM | – | > 100 µM | – | > 100 µM | – | > 100 µM | – | > 100 µM | – | > 100 µM | – | > 100 µM | – | > 100 µM | – | > 100 µM | – | > 100 µM
14 | CC1=CC(=O)N(c2cccc3c(N4C(=O)C=C(C)C4=O)cccc23)C1=O | 1.96 µM | 4.4 µM | 1.52 µM | 11.1 µM | 23.1 µM | > 63.8 µM | 5.88 µM | 19.5 µM | 3.13 µM | 9.33 µM | 8.35 µM | 26.3 µM | 32.5 µM | > 100 µM | 5.18 µM | 16.9 µM | 15.3 µM | 39.7 µM | 3.36 µM | 16.5 µM
15 | Cc1sc(C(=O)c2cncnc2N[C@@H]2C[C@H](COS(N)(=O)=O)[C@@H](O)C2)cc1[C@@H]1NCCc2ccc(Cl)cc21 | 6.35 µM | 22 µM | 0.0801 µM | 20.1 µM | 10.3 µM | 25.7 µM | 10.9 µM | 26.7 µM | 0.0394 µM | 15.5 µM | 9.43 µM | 23.6 µM | 2.21 µM | 22.3 µM | 4.38 µM | 31.1 µM | 11.8 µM | 27 µM | 11.7 µM | 58.7 µM
16 | Cc1ccccc1NC(=O)/C(=N\NC(N)=S)C(C#N)c1ccccc1 (stereo not drawn) | – | > 100 µM | – | > 100 µM | – | > 100 µM | – | > 100 µM | – | > 100 µM | – | > 100 µM | – | > 100 µM | – | > 100 µM | – | > 100 µM | – | > 100 µM
17 | CNC(=O)ON(C(C)=O)C(=O)NC | – | 107 µM | 20.1 µM and 6.17 µM | > 65.9 µM and 43 µM | – | 230 µM | 93 µM | 222 µM | > 78.6 µM | 129 µM | – | 276 µM | – | 283 µM | – | 142 µM | – | 156 µM | – | 235 µM
